Laboratory results: a flash point compilation (Sun et al. 2020)
Counter-ions that a name gives are not always drawn.

flash point | Structure (SMILES)
42 °C | C#CCCCCCC#C [1,8-nonadiyne]
48 °C | C#CCCCCCCCC [1-decyne]
73 °C | C=CCCCCCCCCCC [1-dodecene]
-1 °C | CC1=CCCCC1 [1-methylcyclohexene]
-19 °C | CC1=CCCC1 [1-methylcyclopentene]
24 °C | CC(C)=CC=C(C)C [2,5-dimethyl-2,4-hexadiene]
-10 °C | CC#CCCC [2-hexyne]
-24 °C | CC(C)(C)S [2-methyl-2-propanethiol]
80 °C | CC(CCO)CC(C)(C)C (configuration not stated) [3,5,5-trimethyl-1-hexanol]
28 °C | ClC1CCCCC1 [chlorocyclohexane]
59 °C | C1CCCCCCCCC1 [cyclodecane]
-23 °C | CC1CCCC1 [methylcyclopentane]
-18 °C | C=C1CCCC1 [methylenecyclopentane]
94 °C | CCCCCCCCCCCCC [tridecane]

Structure (SMILES) | flash point
COCCOC(C)=O [2-methoxyethylacetate] | 43 °C
NCCNCCN [diethylenetriamine] | 90 °C

remark: another data set of the same source

Structure (SMILES) | flash point
CC(Cl)(Cl)[N+](=O)[O-] [1,1-Dichloro-1-nitroethane] | 76.00 °C
Clc1cc(Cl)c(Cl)cc1Cl [1,2,4,5-Tetrachlorobenzene] | 155.00 °C
CC(Cl)CCl (configuration not stated) [1,2-Dichloropropane] | 16.00 °C
CC(O)CO (configuration not stated) [1,2-Propanediol] | 99.00 °C
CC(Cl)=CCCl [1,3-Dichloro-2-butene] | 27.00 °C
C=CCC=CC [1,4-Hexadiene] | -21.00 °C
C=CCC [1-Butene] | -80.00 °C
CCC(Cl)[N+](=O)[O-] (configuration not stated) [1-Chloro-1-nitropropane] | 62.00 °C
O=[N+]([O-])c1ccc(Cl)c([N+](=O)[O-])c1 [1-Chloro-2,4-dinitrobenzene] | 194.00 °C
Nc1cccc2ccccc12 [1-Naphthylamine] | 157.00 °C
CCC[N+](=O)[O-] [1-Nitropropane] | 49.00 °C
Oc1ccc(Cl)cc1Cl [2,4-Dichlorophenol] | 114.00 °C
CC=CC=CC=O [2,4-Hexadienal] | 68.00 °C
CCCCC(CC)CO (configuration not stated) [2-Ethyl hexanol] | 84.00 °C
OCCS [2-Mercaptoethanol] | 74.00 °C
Cc1ccco1 [2-Methyl furan] | -30.00 °C
Cc1ccccn1 [2-Picoline] | 39.00 °C
C1=COCCC1 [3,4-Dihydro-2H-pyran] | -18.00 °C
Cc1ccncc1 [4-Picoline] | 57.00 °C
CC(=O)Nc1ccccc1 [Acetanilide] | 174.00 °C
CC(C)(O)C#N [Acetone cyanohydrin] | 74.00 °C
C=CC(=O)O [Acrylic acid] | 52.00 °C
N#Cc1ccccc1 [Benzonitrile] | 85.00 °C
O=C(Cl)c1ccccc1 [Benzoyl chloride] | 72.00 °C
NCc1ccccc1 [Benzylamine] | 63.00 °C
c1ccc(-c2ccccc2)cc1 [Biphenyl] | 113.00 °C

Structure (SMILES) | flash point
Brc1ccccc1 [Bromobenzene] | 51.00 °C
CCCCS [Butyl mercaptan] | 2.00 °C
C=C(C)C(=O)OCCCC [Butyl methacrylate] | 52.00 °C
CCCCCC(=O)O [Caproic acid] | 102.00 °C
S=C=S [Carbon disulphide] | -30.00 °C
O=CCCl [Chloroacetaldehyde] | 88.00 °C
Clc1cccc2ccccc12 [Chloronaphthalene] | 132.00 °C
C/C=C/C=O [Crotonaldehyde] | 13.00 °C
CC(C)c1ccccc1 [Cumene] | 44.00 °C
O=C1CCCCC1 [Cyclohexanone] | 44.00 °C
O=C1CCCC1 [Cyclopentanone] | 26.00 °C
CC(=O)CC(C)(C)O [Diacetone alcohol] | 64.00 °C
CCCCOC(=O)C(=O)OCCCC [Dibutyl oxalate] | 104.00 °C
CCCCOC(=O)c1ccccc1C(=O)OCCCC [Dibutyl phthalate] | 157.00 °C
CCCCOC(=O)C(O)C(O)C(=O)OCCCC (configuration not stated) [Dibutyl tartrate] | 91.00 °C
O=C(Cl)C(Cl)Cl [Dichloroacetyl chloride] | 66.00 °C
C1CCC(NC2CCCCC2)CC1 [Dicyclohexylamine] | 99.00 °C
NCCNCCN [Diethylenetriamine] | 102.00 °C
CC(C)CC(O)CC(C)C [Diisobutyl carbinol] | 74.00 °C
COC(C)(C)OC [Dimethoxypropane] | -7.00 °C
COC(=O)OC [Dimethyl carbonate] | 19.00 °C
COC(=O)c1ccccc1C(=O)OC [Dimethyl phthalate] | 146.00 °C
COC(C)COC(C)CO (configuration not stated) [Dipropylene glycol methyl ether] | 85.00 °C
ClCC1CO1 (configuration not stated) [Epichlorohydrin] | 41.00 °C
CCCC(=O)Nc1ccccc1 [Ethyl acetanilide] | 52.00 °C
CCOC(=O)CC(C)=O [Ethyl acetoacetate] | 84.00 °C

Structure (SMILES) | flash point
CCCCCC(=O)CC [Ethyl amyl ketone] | 57.00 °C
CCOC(=O)CCl [Ethyl chloroacetate] | 66.00 °C
C/C=C/C(=O)OCC [Ethyl crotonate] | 2.00 °C
CCOC(=O)CC [Ethyl propionate] | 12.00 °C
OCCCl [Ethylene chlorohydrin] | 60.00 °C
NC=O [Formamide] | 155.00 °C
O=Cc1ccco1 [Furfural] | 60.00 °C
OCC(O)CO [Glycerol] | 160.00 °C
CC(=O)CC(C)C [Isobutyl methyl ketone] | 17.00 °C
C=CC(=C)C [Isoprene] | -54.00 °C
C=CC(=O)OC [Methyl acrylate] | -3.00 °C
CCC(C)=O [Methyl ethyl ketone] | -7.00 °C
CC(=O)CC(C)C [Methyl isobutyl ketone] | 23.00 °C
COC(=O)C(C)C [Methyl isobutyrate] | 13.00 °C
C=C(C)C(=O)OC [Methyl methacrylate] | 10.00 °C
CCCC(C)=O [Methyl-n-Propyl ketone] | 7.00 °C
CN(C)c1ccccc1 [N,N-Dimethylaniline ] | 63.00 °C
c1ccc2ccccc2c1 [Naphthalene] | 79.00 °C
Oc1ccccc1 [Phenol] | 79.00 °C
NCC(O)c1ccccc1 (configuration not stated) [Phenylethanolamine] | 152.00 °C
NNc1ccccc1 [Phenylhydrazine] | 89.00 °C
CC(C)=CC(=O)C=C(C)C [Phorone] | 85.00 °C
C=CC=CC [Piperylene] | -43.00 °C
CCCc1ccccc1 [Propyl benzene] | 30.00 °C
c1ccncc1 [Pyridine] | 20.00 °C
Oc1cccc(O)c1 [Resorcinol] | 127.00 °C

Structure (SMILES) | flash point
O=C(O)c1ccccc1O [Salicylic acid] | 157.00 °C
NCCNCCNCCNCCN [Tetraethylenepentamine] | 163.00 °C
c1ccc2c(c1)CCCC2 [Tetrahydronaphthalene] | 71.00 °C
c1ccsc1 [Thiophene] | -1.00 °C
OCCN(CCO)CCO [Triethanolamine] | 179.00 °C
CN(C)C [Trimethyl amine] | -7.00 °C
O=P(Oc1ccccc1)(Oc1ccccc1)Oc1ccccc1 [Triphenyl phosphate] | 220.00 °C
c1ccc(P(c2ccccc2)c2ccccc2)cc1 [Triphenyl phosphine] | 180.00 °C
C=CCl [Vinyl chloride] | -78.00 °C
Cc1cccc(N)c1C [Xylidine] | 97.00 °C
CC(C)CCO[N+](=O)[O-] [iso-Amyl nitrate] | 52.00 °C
CC(=O)OCC(C)C [iso-Butyl acetate] | 18.00 °C
Cc1cccc([N+](=O)[O-])c1 [m-Nitrotoluene] | 106.00 °C
c1ccc(-c2cccc(-c3ccccc3)c2)cc1 [m-Terphenyl] | 135.00 °C
Cc1cccc(N)c1 [m-Toluidine] | 86.00 °C
Cc1cccc(C)c1 [m-Xylene] | 29.00 °C
CCCCCCCN [n-Heptylamine] | 54.00 °C
CCCOC(C)=O [n-Propyl acetate] | 14.00 °C
COc1ccccc1C=O [o-Anisaldehyde] | 118.00 °C
Cc1ccccc1Br [o-Bromotoluene] | 79.00 °C
Oc1ccccc1Cl [o-Chlorophenol] | 64.00 °C
Nc1ccccc1[N+](=O)[O-] [o-Nitroaniline] | 168.00 °C
Cc1ccccc1[N+](=O)[O-] [o-Nitrotoluene] | 106.00 °C
c1ccc(-c2ccccc2-c2ccccc2)cc1 [o-Terphenyl] | 163.00 °C
Cc1ccccc1N [o-Toluidine] | 85.00 °C

remark: another data set of the same source

flash point | Structure (SMILES)
-24.00 °C | CC1CCCC1 [methylcyclopentane]
79.00 °C | CCCCCCCCCCCCC [tridecane]

remark: another data set of the same source

flash point | Structure (SMILES)
41 °C | C#CCCCCCC#C [1,8-nonadiyne]
50 °C | C#CCCCCCCCC [1-decyne]
77 °C | C=CCCCCCCCCCC [1-dodecene]
-3 °C | CC1=CCCCC1 [1-methylcyclohexene]
-17 °C | CC1=CCCC1 [1-methylcyclopentene]
29 °C | CC(C)=CC=C(C)C [2,5-dimethyl-2,4-hexadiene]
-11 °C | CC#CCCC [2-hexyne]
-26 °C | CC(C)(C)S [2-methyl-2-propanethiol]
79 °C | CC(CCO)CC(C)(C)C (configuration not stated) [3,5,5-trimethyl-1-hexanol]
32 °C | ClC1CCCCC1 [chlorocyclohexane]
65 °C | C1CCCCCCCCC1 [cyclodecane]
-29 °C | CC1CCCC1 [methylcyclopentane]
-19 °C | C=C1CCCC1 [methylenecyclopentane]
102 °C | CCCCCCCCCCCCC [tridecane]

Structure (SMILES) | flash point
COCCOC(C)=O [2-methoxyethylacetate] | 45 °C
NCCNCCN [diethylenetriamine] | 97 °C
